Experimental data: patent US9307766B2, “Isoxazoline derivatives as insecticidal compounds” (Syngenta Participations AG, priority 2011, dated 2016)

Assays:
Assay type in all cases: in vivo
[1] = test system: Heliothis virescens; assay: Heliothis virescens (tobacco budworm) egg test on artificial diet; settings: 96 h, 200 ppm (concentration in well 18 ppm) by pipetting, eggs 0-24 h old on artificial diet, egg mortality, larval mortality, growth regulation after 4 days
Method: Heliothis virescens (Tobacco Budworm):
Eggs (0-24 h old) were placed in 24-well microtiter plate on artificial diet and treated with test solutions at an application rate of 200 ppm (concentration in well 18 ppm) by pipetting. After an incubation period of 4 days, samples were checked for egg mortality, larval mortality, and growth regulation.

[2] = test system: Spodoptera littoralis; assay: Spodoptera littoralis (Egyptian cotton leafworm) leaf disc spray test; settings: foliar, 72 h, 200 ppm sprayed on cotton leaf discs, L1 larvae, mortality, feeding behavior, growth regulation 3 days after treatment
Excerpt: Spodoptera littoralis (Egyptian Cotton Leafworm):
Cotton leaf discs were placed on agar in a 24-well microtiter plate and sprayed with test solutions at an application rate of 200 ppm. After drying, the leaf discs were infested with 5 L1 larvae. The samples were checked for mortality, feeding behavior, and growth regulation 3 days after treatment (DAT).

[3] = test system: Thrips tabaci; assay: Thrips tabaci (onion thrips) leaf disc spray test; settings: foliar, 168 h, 200 ppm sprayed on sunflower leaf discs, thrip population of mixed ages, mortality after 7 days
Method: Thrips tabaci (Onion Thrips):
Sunflower leaf discs were placed on agar in a 24-well microtiter plate and sprayed with test solutions at an application rate of 200 ppm. After drying, the leaf discs were infested with a thrip population of mixed ages. After an incubation period of 7 days, samples were checked for mortality.

[4] = test system: Diabrotica balteata; assay: Diabrotica balteata (corn root worm) artificial diet test; settings: 120 h, 200 ppm (concentration in well 18 ppm) on artificial diet, L2 larvae, larval mortality and growth regulation after 5 days
Method: Diabrotica balteata (Corn Root Worm):
(§1) A 24-well microtiter plate (MTP) with artificial diet was treated with test solutions at an application rate of 200 ppm (concentration in well 18 ppm) by pipetting. After drying, the MTP's were infested with L2 larvae (6-10 per well). After an incubation period of 5 days, samples were checked for larval mortality and growth regulation.

[5] = test system: Plutella xylostella; assay: Plutella xylostella (diamond back moth) artificial diet test; settings: 144 h, 200 ppm (concentration in well 18 ppm) on artificial diet, L2 larvae, larval mortality and growth regulation after 6 days
Method: Plutella xylostella (Diamond Back Moth):
as §1, with “24-well” for “A 24-well”, “(7-12” for “(6-10”, “6” for “5”

[6] = test system: Tetranychus urticae; assay: Tetranychus urticae (two-spotted spider mite) leaf disc spray test; settings: foliar, 192 h, 200 ppm sprayed on bean leaf discs, mite populations of mixed ages, egg, larval and adult mortality 8 days later
Excerpt: Tetranychus urticae (Two-Spotted Spider Mite):
Bean leaf discs on agar in 24-well microtiter plates were sprayed with test solutions at an application rate of 200 ppm. After drying, the leaf discs are infested with mite populations of mixed ages. 8 days later, discs are checked for egg mortality, larval mortality, and adult mortality.

Measured: pest or weed control at 200 ppm

O=C(NC1CS(=O)(=O)C1)c1ccc(C2=NOC(c3cc(Cl)cc(Cl)c3)(C(F)(F)F)C2Br)c2ccccc12 (stereo not drawn) [Compound D01, 4-[4-bromo-5-(3,5-dichlorophenyl)-5-(trifluoromethyl)-4H-isoxazol-3-yl]-N-(1,1-dioxothietan-3-yl)naphthalene-1-carboxamide]
≥ 80%: all assays above

CC1(NC(=O)c2ccc(C3=NOC(c4cc(Cl)cc(Cl)c4)(C(F)(F)F)C3Br)c3ccccc23)CSC1 (stereo not drawn) [Compound D02, 4-[4-bromo-5-(3,5-dichlorophenyl)-5-(trifluoromethyl)-4H-isoxazol-3-yl]-N-(3-methylthietan-3-yl)naphthalene-1-carboxamide]
≥ 80%: all assays above

O=C(NC1C[S+]([O-])C1)c1ccc(C2=NOC(c3cc(Cl)cc(Cl)c3)(C(F)(F)F)C2Br)c2ccccc12 (stereo not drawn) [Compound D03, 4-[4-bromo-5-(3,5-dichlorophenyl)-5-(trifluoromethyl)-4H-isoxazol-3-yl]-N-(1-oxothietan-3-yl)naphthalene-1-carboxamide]
≥ 80%: all assays above

O=C(NC1CSC1)c1ccc(C2=NOC(c3cc(Cl)cc(Cl)c3)(C(F)(F)F)C2Br)c2ccccc12 (stereo not drawn) [Compound D04, 4-[4-bromo-5-(3,5-dichlorophenyl)-5-(trifluoromethyl)-4H-isoxazol-3-yl]-N-(thietan-3-yl)naphthalene-1-carboxamide]
≥ 80%: all assays above

O=C(CNC(=O)c1ccc(C2=NOC(c3cc(Cl)cc(Cl)c3)(C(F)(F)F)C2)c2ccccc12)NC1CS(=O)(=O)C1 (stereo not drawn) [Compound D05, 4-[5-(3,5-dichlorophenyl)-5-(trifluoromethyl)-4H-isoxazol-3-yl]-N-[2-[(1,1-dioxothietan-3-yl)amino]-2-oxo-ethyl]naphthalene-1-carboxamide]
≥ 80%: all assays above

CC1(NC(=O)CNC(=O)c2ccc(C3=NOC(c4cc(Cl)cc(Cl)c4)(C(F)(F)F)C3)c3ccccc23)CSC1 (stereo not drawn) [Compound D06, 4-[5-(3,5-dichlorophenyl)-5-(trifluoromethyl)-4H-isoxazol-3-yl]-N-[2-[(3-methylthietan-3-yl)amino]-2-oxo-ethyl]naphthalene-1-carboxamide]
≥ 80%: all assays above

O=C(CNC(=O)c1ccc(C2=NOC(c3cc(Cl)cc(Cl)c3)(C(F)(F)F)C2)c2ccccc12)NC1C[S+]([O-])C1 (stereo not drawn) [Compound D07, 4-[5-(3,5-dichlorophenyl)-5-(trifluoromethyl)-4H-isoxazol-3-yl]-N-[2-oxo-2-[(1-oxothietan-3-yl)amino]ethyl]naphthalene-1-carboxamide]
≥ 80%: [2] | [3] | [5] | [6]

O=C(CNC(=O)c1ccc(C2=NOC(c3cc(Cl)cc(Cl)c3)(C(F)(F)F)C2)c2ccccc12)NC1CSC1 (stereo not drawn) [Compound D08, 4-[5-(3,5-dichlorophenyl)-5-(trifluoromethyl)-4H-isoxazol-3-yl]-N-[2-oxo-2-(thietan-3-ylamino)ethyl]naphthalene-1-carboxamide]
not listed: [1]
≥ 80%: all other assays above

O=C(NC1CS(=O)(=O)C1)c1ccc(C2=NOC(c3cc(Cl)cc(Cl)c3)(C(F)(F)F)C2)c2ncccc12 (stereo not drawn) [Compound D09, 8-[5-(3,5-dichlorophenyl)-5-(trifluoromethyl)-4H-isoxazol-3-yl]-N-(1,1-dioxothietan-3-yl)quinoline-5-carboxamide]
≥ 80%: [2] | [5]

O=C(NC1CSC1)c1ccc(C2=NOC(c3cc(Cl)cc(Cl)c3)(C(F)(F)F)C2)c2ncccc12 (stereo not drawn) [Compound D10, 8-[5-(3,5-dichlorophenyl)-5-(trifluoromethyl)-4H-isoxazol-3-yl]-N-(thietan-3-yl)quinoline-5-carboxamide]
≥ 80%: [1] | [2] | [4] | [5]

O=C(NC1C[S+]([O-])C1)c1ccc(C2=NOC(c3cc(Cl)cc(Cl)c3)(C(F)(F)F)C2)c2ncccc12 (stereo not drawn) [Compound D11, 8-[5-(3,5-dichlorophenyl)-5-(trifluoromethyl)-4H-isoxazol-3-yl]-N-(1-oxothietan-3-yl)quinoline-5-carboxamide]
≥ 80%: [1] | [2] | [5]

O=C(NC1CSC1)c1ccc(C2=NOC(c3cc(Cl)cc(Cl)c3)(C(F)(F)F)C2)c2cccnc12 (stereo not drawn) [Compound D12, 5-[5-(3,5-dichlorophenyl)-5-(trifluoromethyl)-4H-isoxazol-3-yl]-N-(thietan-3-yl)quinoline-8-carboxamide]
≥ 80%: all assays above

O=C(NC1CS(=O)(=O)C1)c1cnc(C2=NOC(c3cc(Cl)cc(Cl)c3)(C(F)(F)F)C2)c2ccccc12 (stereo not drawn) [Compound D13, 1-[5-(3,5-dichlorophenyl)-5-(trifluoromethyl)-4H-isoxazol-3-yl]-N-(1,1-dioxothietan-3-yl)isoquinoline-4-carboxamide]
≥ 80%: [1] | [2] | [4] | [5]

CC1(NC(=O)c2cnc(C3=NOC(c4cc(Cl)cc(Cl)c4)(C(F)(F)F)C3)c3ccccc23)CSC1 (stereo not drawn) [Compound D14, 1-[5-(3,5-dichlorophenyl)-5-(trifluoromethyl)-4H-isoxazol-3-yl]-N-(3-methylthietan-3-yl)isoquinoline-4-carboxamide]
not listed: [2]
≥ 80%: all other assays above

O=C(NC1CSC1)c1cnc(C2=NOC(c3cc(Cl)cc(Cl)c3)(C(F)(F)F)C2)c2ccccc12 (stereo not drawn) [Compound D15, 1-[5-(3,5-dichlorophenyl)-5-(trifluoromethyl)-4H-isoxazol-3-yl]-N-(thietan-3-yl)isoquinoline-4-carboxamide]
≥ 80%: all assays above

O=C(NC1C[S+]([O-])C1)c1cnc(C2=NOC(c3cc(Cl)cc(Cl)c3)(C(F)(F)F)C2)c2ccccc12 (stereo not drawn) [Compound D16, 1-[5-(3,5-dichlorophenyl)-5-(trifluoromethyl)-4H-isoxazol-3-yl]-N-(1-oxothietan-3-yl)isoquinoline-4-carboxamide]
≥ 80%: all assays above
